# Target: P. falciparum apicoplast DNA polymerase (Pf-apPOL) (Plasmodium falciparum, UniProt Q8ILY1)
# Assay: Fluorescence-based high-throughput DNA polymerase assay (molecular beacon), primary screen and dose-response;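 on % inhibition ApPOL 90': test concentration in µM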;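 on % inhibition apPOL 180': test concentration in µM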
# Format: biochemical
# Summary of the method: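 Single-point screening used 10 µM compound with 20 nM polymerase, 20 nM hairpin substrate and 6 µM dNTPs for 90 min at 25 °C. Confirmatory titrations (2.5–80 µM) followed fluorescence at three times, and IC50 was derived from a fit including a cooperativity term n.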
# [1] = supplemental file 2, sheet IC50 nontoxic compounds; Pf-apPOL
# Chain of P. falciparum apicoplast DNA polymerase (Pf-apPOL) (Q8ILY1 entry or part of it): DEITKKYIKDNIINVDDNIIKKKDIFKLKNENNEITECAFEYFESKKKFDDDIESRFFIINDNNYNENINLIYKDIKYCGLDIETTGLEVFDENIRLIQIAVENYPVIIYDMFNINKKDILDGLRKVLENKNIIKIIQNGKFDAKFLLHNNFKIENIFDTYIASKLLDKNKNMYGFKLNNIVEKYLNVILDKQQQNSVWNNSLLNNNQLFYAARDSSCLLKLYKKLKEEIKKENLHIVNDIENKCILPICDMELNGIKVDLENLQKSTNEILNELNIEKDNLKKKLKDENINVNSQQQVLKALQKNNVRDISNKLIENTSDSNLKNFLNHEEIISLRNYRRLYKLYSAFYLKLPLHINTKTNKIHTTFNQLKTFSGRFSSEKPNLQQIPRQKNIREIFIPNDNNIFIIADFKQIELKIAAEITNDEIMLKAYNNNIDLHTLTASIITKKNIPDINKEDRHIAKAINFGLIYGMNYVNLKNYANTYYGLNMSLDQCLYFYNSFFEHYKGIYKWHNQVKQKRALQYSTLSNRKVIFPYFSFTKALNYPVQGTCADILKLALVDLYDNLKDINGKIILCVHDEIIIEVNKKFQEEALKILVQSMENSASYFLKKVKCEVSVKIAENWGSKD
structure (smiles),measurement,setting,value
O=[N+]([O-])c1ccc(SCc2ccco2)c2cccnc12 [KU0034480],% inhibition Apo pol 10',DRC-1; concentration 2.5; 10',15.1764%
same,% inhibition Apol 90',DRC-1; concentration 2.5; 90',4.148%
same,% inhibition apPOL 180',DRC-1; concentration 2.5; 180',-3.317%
same,% inhibition Apo pol 10',DRC-1; concentration 5; 10',32.9023%
same,% inhibition Apol 90',DRC-1; concentration 5; 90',16.0357%
same,% inhibition apPOL 180',DRC-1; concentration 5; 180',6.603%
same,% inhibition Apo pol 10',DRC-1; concentration 10; 10',55.3292%
same,% inhibition Apol 90',DRC-1; concentration 10; 90',36.0729%
same,% inhibition apPOL 180',DRC-1; concentration 10; 180',23.8373%
same,% inhibition Apo pol 10',DRC-1; concentration 20; 10',73.1419%
same,% inhibition Apol 90',DRC-1; concentration 20; 90',49.2841%
same,% inhibition apPOL 180',DRC-1; concentration 20; 180',26.1748%
same,% inhibition Apo pol 10',DRC-1; concentration 40; 10',89.7276%
same,% inhibition Apol 90',DRC-1; concentration 40; 90',77.8644%
same,% inhibition apPOL 180',DRC-1; concentration 40; 180',65.2989%
same,% inhibition Apo pol 10',DRC-1; concentration 80 (unit not given); 10',92.5619%
same,% inhibition Apol 90',DRC-1; concentration 80; 90',91.6594%
same,% inhibition apPOL 180',DRC-1; concentration 80; 180',89.7624%
same,% inhibition Apo pol 5',DRC-2; 5'; concentration 2.5,33%
same,% inhibition Apo pol 5',DRC-2; 5'; concentration 5,33%
same,% inhibition Apol 40',DRC-2; 40'; concentration 5,33%
same,% inhibition ApPOL 90',DRC-2; 90'; concentration 40,75%
same,% inhibition apPOL 180',DRC-2; 180'; concentration 40,75%
same,% inhibition apPOL 180',DRC-2; 180'; concentration 80,75%
same,% inhibition Apo pol 5',DRC-2; concentration 2.5; 5',33%
same,% inhibition Apol 40',DRC-2; concentration 2.5; 40',40%
same,% inhibition ApPOL 90',DRC-2; concentration 2.5; 90',36%
same,% inhibition apPOL 180',DRC-2; concentration 2.5; 180',26%
same,% inhibition Apo pol 5',DRC-2; concentration 5; 5',33%
same,% inhibition Apol 40',DRC-2; concentration 5; 40',33%
same,% inhibition ApPOL 90',DRC-2; concentration 5; 90',29%
same,% inhibition apPOL 180',DRC-2; concentration 5; 180',16%
same,% inhibition Apo pol 5',DRC-2; concentration 10; 5',38%
same,% inhibition Apol 40',DRC-2; concentration 10; 40',39%
same,% inhibition ApPOL 90',DRC-2; concentration 10; 90',35%
same,% inhibition apPOL 180',DRC-2; concentration 10; 180',22%
same,% inhibition Apo pol 5',DRC-2; concentration 20; 5',47%
same,% inhibition Apol 40',DRC-2; concentration 20; 40',63%
same,% inhibition ApPOL 90',DRC-2; concentration 20; 90',62%
same,% inhibition apPOL 180',DRC-2; concentration 20; 180',53%
same,% inhibition Apo pol 5',DRC-2; concentration 40; 5',48%
same,% inhibition Apol 40',DRC-2; concentration 40; 40',72%
same,% inhibition ApPOL 90',DRC-2; concentration 40; 90',75%
same,% inhibition apPOL 180',DRC-2; concentration 40; 180',75%
same,% inhibition Apo pol 5',DRC-2; concentration 80; 5',13%
same,% inhibition Apol 40',DRC-2; concentration 80; 40',57%
same,% inhibition ApPOL 90',DRC-2; concentration 80; 90',66%
same,% inhibition apPOL 180',DRC-2; concentration 80; 180',75%
same,DNA Pol,"primary screen value of the 186 hits; unit not given; 90 min, 10 µM",42
same,DNA Pol,"primary screen value; head prints only 'DNA Pol'; 90 min, 10 µM",42
Oc1ccc(N=Nc2ccccc2)c(O)c1 [Molecule 80],IC50,[1],37.5 µM
O=C(Cn1ccc2c(=O)[nH]ccc21)Nc1cc(F)ccc1F [Molecule 42],IC50,[1],12.7 µM
CSCCC(C)(O)CNC(=O)C1CC1 (stereo not drawn) [KU0200150],DNA Pol,"'DNA Pol'; screening value, unit not given; 90 min, 10 µM",33
same,% inhibition Apo pol 10',DRC-1; 10'; concentration 2.5,4.373%
same,% inhibition Apo pol 10',DRC-1; 10'; concentration 5,5.1384%
same,% inhibition Apo pol 10',DRC-1; 10'; concentration 10,19.1529%
same,% inhibition Apo pol 10',DRC-1; 10'; concentration 20,27.3456%
same,% inhibition Apo pol 10',DRC-1; 10'; concentration 40,40.4484%
same,% inhibition Apo pol 10',DRC-1; 10'; concentration 80,39.3482%
same,% inhibition Apol 90',DRC-1; 90'; concentration 2.5,7.582%
same,% inhibition Apol 90',DRC-1; 90'; concentration 5,12.5551%
same,% inhibition Apol 90',DRC-1; 90'; concentration 10,30.4266%
same,% inhibition Apol 90',DRC-1; 90'; concentration 20,38.5831%
same,% inhibition Apol 90',DRC-1; 90'; concentration 40,51.9729%
same,% inhibition Apol 90',DRC-1; 90'; concentration 80,47.9472%
same,% inhibition apPOL 180',DRC-1; 180'; concentration 2.5,8.962%
same,% inhibition apPOL 180',DRC-1; 180'; concentration 5,14.7367%
same,% inhibition apPOL 180',DRC-1; 180'; concentration 10,36.1682%
same,% inhibition apPOL 180',DRC-1; 180'; concentration 20,43.4388%
same,% inhibition apPOL 180',DRC-1; 180'; concentration 40,54.9454%
same,% inhibition apPOL 180',DRC-1; 180'; concentration 80,46.3242%
same,% inhibition Apo pol 5',"DRC-2, 5', concentration 2.5",0.182%
same,% inhibition Apo pol 5',"DRC-2, 5', concentration 5",4.75%
same,% inhibition Apo pol 5',"DRC-2, 5', concentration 10",22%
same,% inhibition Apo pol 5',"DRC-2, 5', concentration 20",24%
same,% inhibition Apo pol 5',"DRC-2, 5', concentration 40",29%
same,% inhibition Apo pol 5',"DRC-2, 5', concentration 80",27%
same,% inhibition Apol 40',"DRC-2, 40', concentration 2.5",3.34%
same,% inhibition Apol 40',"DRC-2, 40', concentration 5",11%
same,% inhibition Apol 40',"DRC-2, 40', concentration 10",28%
same,% inhibition Apol 40',"DRC-2, 40', concentration 20",33%
same,% inhibition Apol 40',"DRC-2, 40', concentration 40",41%
same,% inhibition Apol 40',"DRC-2, 40', concentration 80",41%
same,% inhibition ApPOL 90',"DRC-2, 90', concentration 2.5",3.4%
same,% inhibition ApPOL 90',"DRC-2, 90', concentration 5",11%
same,% inhibition ApPOL 90',"DRC-2, 90', concentration 10",27%
same,% inhibition ApPOL 90',"DRC-2, 90', concentration 20",30%
same,% inhibition ApPOL 90',"DRC-2, 90', concentration 40",42%
same,% inhibition ApPOL 90',"DRC-2, 90', concentration 80",41%
same,% inhibition apPOL 180',"DRC-2, 180', concentration 2.5",0.149%
same,% inhibition apPOL 180',"DRC-2, 180', concentration 5",5%
same,% inhibition apPOL 180',"DRC-2, 180', concentration 10",17%
same,% inhibition apPOL 180',"DRC-2, 180', concentration 20",18%
same,% inhibition apPOL 180',"DRC-2, 180', concentration 40",32%
same,% inhibition apPOL 180',"DRC-2, 180', concentration 80",32%
same,% inhibition Apol 40',conc 5 (unit not given); 40'; DRC-2,11%
same,% inhibition ApPOL 90',conc 5 (unit not given); 90'; DRC-2,11%
same,% inhibition ApPOL 90',conc 10 (unit not given); 90'; DRC-2,27%
same,% inhibition Apol 40',conc 40 (unit not given); 40'; DRC-2,41%
same,% inhibition apPOL 180',conc 40 (unit not given); 180'; DRC-2,32%
same,% inhibition Apo pol 5',conc 80 (unit not given); 5'; DRC-2,27%
same,% inhibition Apol 40',conc 80 (unit not given); 40'; DRC-2,41%
same,% inhibition ApPOL 90',conc 80 (unit not given); 90'; DRC-2,41%
same,% inhibition apPOL 180',conc 80 (unit not given); 180'; DRC-2,32%
same,DNA Pol,"primary screen hit value, DNA Pol (186 hits); 90 min, 10 µM",33
"CSC1=C(C#N)C(=C(C#N)C#N)NC(c2ccccc2)=N1 [Molecule 2, CSc1nc([nH]c(=C(C#N)C#N)c1C#N)c1ccccc1]",DNA Pol,"'DNA Pol' of the 186 hits list (primary screen result); unit not given; 90 min, 10 µM",97
same,% inhibition Apo pol 10',DRC-1; 10'; concentration 2.5,13.8022%
same,% inhibition Apo pol 10',DRC-1; 10'; concentration 5,41.8918%
same,% inhibition Apo pol 10',DRC-1; 10'; concentration 10,81.1404%
same,% inhibition Apo pol 10',DRC-1; 10'; concentration 20,90.9481%
same,% inhibition Apo pol 10',DRC-1; 10'; concentration 40,95.8628%
same,% inhibition Apo pol 10',DRC-1; 10'; concentration 80,96.566%
same,% inhibition Apol 90',DRC-1; 90'; concentration 2.5,8.793%
same,% inhibition Apol 90',DRC-1; 90'; concentration 5,34.1727%
same,% inhibition Apol 90',DRC-1; 90'; concentration 10,79.1809%
same,% inhibition Apol 90',DRC-1; 90'; concentration 20,88.8682%
same,% inhibition Apol 90',DRC-1; 90'; concentration 40,93.6444%
same,% inhibition Apol 90',DRC-1; 90'; concentration 80,97.3798%
same,% inhibition apPOL 180',DRC-1; 180'; concentration 2.5,3.214%
same,% inhibition apPOL 180',DRC-1; 180'; concentration 5,23.1824%
same,% inhibition apPOL 180',DRC-1; 180'; concentration 10,72.8695%
same,% inhibition apPOL 180',DRC-1; 180'; concentration 20,86.4873%
same,% inhibition apPOL 180',DRC-1; 180'; concentration 40,92.4303%
same,% inhibition apPOL 180',DRC-1; 180'; concentration 80,97.316%
same,% inhibition Apo pol 5',DRC-2; 5'; concentration 2.5,8%
same,% inhibition Apo pol 5',DRC-2; 5'; concentration 5,21%
same,% inhibition Apo pol 5',DRC-2; 5'; concentration 10,38%
same,% inhibition Apo pol 5',DRC-2; 5'; concentration 20,53%
same,% inhibition Apo pol 5',DRC-2; 5'; concentration 40,57%
same,% inhibition Apo pol 5',DRC-2; 5'; concentration 80,60%
same,% inhibition Apol 40',DRC-2; 40'; concentration 5,25%
same,% inhibition Apol 40',DRC-2; 40'; concentration 10,47%
same,% inhibition Apol 40',DRC-2; 40'; concentration 20,65%
same,% inhibition Apol 40',DRC-2; 40'; concentration 40,69%
same,% inhibition Apol 40',DRC-2; 40'; concentration 80,76%
same,% inhibition ApPOL 90',DRC-2; 90'; concentration 2.5,9%
same,% inhibition ApPOL 90',DRC-2; 90'; concentration 5,22%
same,% inhibition ApPOL 90',DRC-2; 90'; concentration 10,46%
same,% inhibition ApPOL 90',DRC-2; 90'; concentration 20,66%
same,% inhibition ApPOL 90',DRC-2; 90'; concentration 40,70%
same,% inhibition ApPOL 90',DRC-2; 90'; concentration 80,79%
same,% inhibition apPOL 180',DRC-2; 180'; concentration 2.5,2.48%
same,% inhibition apPOL 180',DRC-2; 180'; concentration 5,13%
same,% inhibition apPOL 180',DRC-2; 180'; concentration 10,36%
same,% inhibition apPOL 180',DRC-2; 180'; concentration 20,61%
same,% inhibition apPOL 180',DRC-2; 180'; concentration 40,67%
same,% inhibition apPOL 180',DRC-2; 180'; concentration 80,80%
same,DNA Pol,"primary screen value of the library well; unit not given; 90 min, 10 µM",97
O=C(O)CCS(=O)(=O)c1ccc(-c2ccc(S(=O)(=O)CCC(=O)O)cc2)cc1 [Molecule 32],IC50,[1],5.7 µM
O=C(Cn1ccc2c(=O)[nH]ccc21)Nc1ccccc1Cl [Molecule 19],IC50,[1],6.87 µM
